We go through four compounds from PMC5377466 (Scientific Reports, 2014).

The conditions of series [1]: cited from earlier work.
A short description of series [2]: Pharmacokinetics of oral EVL in rats without and with coadministered curcumin. As to conditions: for AUC(0-t): male, Sprague-Dawley, rat, whole blood, po, 0.5 mg/kg, AUC0-540, area under the blood concentration-time curve from 0 to 540 min. Format: in vivo.
For the next series, the target named is CYP3A4 (Homo sapiens, UniProt P08684). The series can be described thus: Vivid CYP450 screening kit, recombinant CYP 3A4 activity. Format: biochemical. As to conditions: recombinant CYP3A4 BACULOSOMES, probe Vivid BOMR.
The next series deals with P-gp (Homo sapiens, UniProt P08183). As to the kind of experiment: P-gp mediated transport of rhodamine 123. As to conditions: LS 180 cells, 4-h incubation. Format: cell-based.
[3] abbreviates: EVL 0.5 mg/kg + curcumin 50 mg/kg.
The mark [4] stands for this setting: EVL 0.5 mg/kg + curcumin 100 mg/kg.

CYP3A4, sequence (P08684 whole entry): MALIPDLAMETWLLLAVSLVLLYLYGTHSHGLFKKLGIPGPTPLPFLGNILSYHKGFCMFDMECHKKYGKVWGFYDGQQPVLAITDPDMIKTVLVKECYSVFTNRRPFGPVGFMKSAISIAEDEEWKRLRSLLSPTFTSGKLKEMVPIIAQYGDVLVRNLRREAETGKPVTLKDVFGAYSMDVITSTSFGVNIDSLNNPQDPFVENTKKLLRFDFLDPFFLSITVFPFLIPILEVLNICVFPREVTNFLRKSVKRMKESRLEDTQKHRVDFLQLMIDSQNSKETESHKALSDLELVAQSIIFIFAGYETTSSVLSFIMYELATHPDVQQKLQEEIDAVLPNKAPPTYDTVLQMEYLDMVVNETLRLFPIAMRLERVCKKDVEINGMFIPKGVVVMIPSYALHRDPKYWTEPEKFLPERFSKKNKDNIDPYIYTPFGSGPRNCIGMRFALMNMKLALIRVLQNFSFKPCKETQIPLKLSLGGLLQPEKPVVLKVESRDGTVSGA
P-gp, sequence (P08183 whole entry): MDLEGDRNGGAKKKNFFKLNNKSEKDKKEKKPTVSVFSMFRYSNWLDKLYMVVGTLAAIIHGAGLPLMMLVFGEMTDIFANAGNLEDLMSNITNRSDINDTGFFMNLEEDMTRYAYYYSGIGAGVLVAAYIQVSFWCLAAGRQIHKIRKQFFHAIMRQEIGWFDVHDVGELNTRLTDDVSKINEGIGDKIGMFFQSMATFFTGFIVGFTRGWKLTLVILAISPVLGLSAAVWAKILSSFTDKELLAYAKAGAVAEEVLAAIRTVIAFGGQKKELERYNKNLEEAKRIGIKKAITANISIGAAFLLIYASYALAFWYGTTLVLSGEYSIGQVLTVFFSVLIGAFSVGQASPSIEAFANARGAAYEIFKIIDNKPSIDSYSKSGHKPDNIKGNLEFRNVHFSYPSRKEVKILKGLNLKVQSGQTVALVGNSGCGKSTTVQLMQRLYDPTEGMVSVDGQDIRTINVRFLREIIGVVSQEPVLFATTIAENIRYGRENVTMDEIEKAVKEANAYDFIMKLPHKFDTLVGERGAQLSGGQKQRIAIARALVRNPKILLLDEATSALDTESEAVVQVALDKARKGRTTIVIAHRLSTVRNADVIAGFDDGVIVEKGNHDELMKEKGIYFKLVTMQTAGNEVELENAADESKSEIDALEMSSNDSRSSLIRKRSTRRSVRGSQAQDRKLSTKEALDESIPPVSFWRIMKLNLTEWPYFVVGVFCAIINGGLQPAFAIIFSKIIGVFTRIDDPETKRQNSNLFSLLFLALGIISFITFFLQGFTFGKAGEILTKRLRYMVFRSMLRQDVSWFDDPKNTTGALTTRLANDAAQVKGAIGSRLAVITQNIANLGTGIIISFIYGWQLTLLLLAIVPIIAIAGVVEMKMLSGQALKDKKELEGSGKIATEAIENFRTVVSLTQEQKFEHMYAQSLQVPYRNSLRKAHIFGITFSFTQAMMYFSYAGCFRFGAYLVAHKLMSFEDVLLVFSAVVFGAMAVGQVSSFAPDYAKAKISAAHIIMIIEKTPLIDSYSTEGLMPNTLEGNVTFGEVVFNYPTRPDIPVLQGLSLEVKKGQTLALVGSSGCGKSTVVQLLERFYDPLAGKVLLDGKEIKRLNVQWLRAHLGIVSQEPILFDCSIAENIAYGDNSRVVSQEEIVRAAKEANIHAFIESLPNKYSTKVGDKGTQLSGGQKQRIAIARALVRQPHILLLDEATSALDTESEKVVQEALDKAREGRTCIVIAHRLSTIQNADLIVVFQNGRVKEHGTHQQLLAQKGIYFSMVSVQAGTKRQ

For `CO[C@H]1C[C@@H]2CC[C@@H](C)[C@@](O)(O2)C(=O)C(=O)N2CCCC[C@H]2C(=O)O[C@H]([C@H](C)C[C@@H]2CC[C@@H](OCCO)[C@H](OC)C2)CC(=O)[C@H](C)/C=C(\C)[C@@H](O)[C@@H](OC)C(=O)[C@H](C)C[C@H](C)/C=C/C=C/C=C/1C` [EVL, Everolimus], in series [1], the Half-life is 18 to 35 h and the Oral bioavailability is recorded as 15–16%. Besides, the “Time to peak concentration” value in series [1] (oral) is 0.5 to 4.0 h. Further, in series [2] (setting [3]), the “Change of AUC0-540 versus EVL alone” value was −70.6% and the “Change of Cmax versus EVL alone” value is −76.7%. Also, in series [2] (setting [4]), the “Change of AUC0-540 versus EVL alone” value is −71.5%, the “Change of Cmax versus EVL alone” value was −76.7% and the “Change of MRT versus EVL alone” value came to 35.3%. Moreover, in series [2] (oral EVL 0.5 mg/kg + curcumin 50 mg/kg), the AUC(0-t) is 8.03 ng·h/mL. In series [2] (oral EVL 0.5 mg/kg + curcumin 100 mg/kg), the AUC(0-t) is 7.77 ng·h/mL. In series [2] (oral EVL 0.5 mg/kg alone), the exposure AUC(0-t) was 27.3 ng·h/mL.
Regarding `O=C(/C=C/c1ccc(O)cc1)CC(=O)/C=C/c1ccc(O)cc1` [bis-demethoxycurcumin], at CYP3A4, the inhibition at 30 min, 0.5 µM stood at 10% and the inhibition at 30 min, 1 µM came out at 10%.
For the compound `COc1cc(/C=C/C(=O)CC(=O)/C=C/c2ccc(O)c(OC)c2)ccc1O` [curcumin, Diferuloylmethane], on CYP3A4, the inhibition at 30 min, 5 µM is 93%. At CYP3A4, the inhibition at 30 min, 10 µM worked out at 90%. In addition, the “Decrease of the efflux function of P-gp (rhodamine 123 accumulation)” value at P-gp (25 μM) is reported as 13.2%; on P-gp (50 μM) it was 16.7%; at P-gp (100 μM), 172.9%. Further, the “Effect on the MRT of EVL by coadministered curcumin” value in series [2] (curcumin 50 mg/kg oral with EVL 0.5 mg/kg) is recorded as “not affected”.
With `COc1cc(/C=C/C(O)=C/C(=O)/C=C/c2ccc(O)cc2)ccc1O` [demethoxycurcumin], on CYP3A4, the inhibition at 30 min, 5 µM was determined as 21% and the inhibition at 30 min, 10 µM worked out at 53%.

By AUC(0-t) is commonly meant exposure summed from dosing to a finite time, without extrapolation to infinity. The term inhibition denotes the share of the control response that was lost under treatment.
